Measured values as given in patent US20230310388A1, “Methods and Compositions for Treating Fungal Infections” (Neoculi Pty Ltd, priority 2020, published 2023).
≈ marks a conversion by molar mass, not a printed value. Like-named read-outs stand apart in the source and are kept apart here. Blank lines part the entries; values can stand above or below the compound they belong to.

Columns and labels:
Type in all cases: cell-based
Malassezia pachydermatis = assay: Checkerboard MIC/FICI of NCL812 and EDTA (Example 2); conditions: for MIC: Malassezia pachydermatis, read-out: MIC, compound alone; for MIC, combination: EDTA + NCL812 combination; for FICI: NCL812 with EDTA
Excerpt: There is no recommended CLSI standard for M. pachydermatis. In the literature there are a number of papers which have developed MIC methodology for Malassezia species isolated from both humans and animals (ie both lipophilic and non-lipophilic species). In all papers the methodology has been altered from the original CLSI protocols in order to overcome four main problem areas involved in testing this yeast. • 1) Finding a suitable growth medium for Malassezia, especially the lipophilic species. […] The method followed was originally developed by Eichenberg et al. (2003) (mSAB broth microdilution method). The mSAB method was devised to follow as closely as possible the CLSI guidelines whilst still allowing for the distinct biochemical and growth requirements of M. pachydermatis. […] Briefly, 150 μl of SDB+1% TW80 was added to each well of a 96-well microtiter plate, which was used as the checkerboard challenge plate. Next, a two-fold serial dilution of NCL 812 (robenidine) working solution was performed along the abscissa (column 3 to 12 only) (1/2 to 1/1024 dilution ratio). […] Experiments were performed in duplicate and repeated twice. […] The FICI values were interpreted as follows (Hamoud et al., 2015).

Candida albicans [1] = assay: as above; conditions: isolate Candida albicans
Candida albicans [2] = assay: CLSI broth microdilution MIC (Example 4); conditions: for antifungal activity against the two isolates of Candida albicans: summary in words
Summary of the method: (§1)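 CLSI broth microdilution in RPMI 1640 with two-fold compound dilutions and inoculum about 2×10^3 cells/mL. Plates incubated 35° C for 24-48 hours; MICs determined in duplicate, with a third test when the duplicates differed.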

Cryptococcus neoformans [3] = assay: CLSI broth microdilution MIC (Example 4)
Summary of the method: as §1

Candida albicans [4] = assay: CLSI broth microdilution MIC (Example 6)
Summary of the method: (§2)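 CLSI broth microdilution in RPMI 1640, compounds serially double-diluted, inoculum about 2×10^3 cells/mL. Incubation at 35° C for 24-48 hours. MICs determined per isolate in duplicate, with a third repeat if values differed.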

Cryptococcus neoformans [5] = assay: CLSI broth microdilution MIC (Example 6)
Summary of the method: as §2

[6] = Example 6 isolates, summary in words

MIC (Malassezia pachydermatis; isolate ML18): 1 µg/mL
MIC (Malassezia pachydermatis; isolate ML19): 2 µg/mL
MIC (Malassezia pachydermatis; isolate ML20): 1 µg/mL
MIC (Malassezia pachydermatis; isolate ML21): 2 µg/mL
MIC (Malassezia pachydermatis; isolate ML36): 2 µg/mL
MIC (Malassezia pachydermatis; isolate ML41): 2 µg/mL
MIC (Malassezia pachydermatis; isolate ML42): 2 µg/mL
MIC (Malassezia pachydermatis; isolate ML43): 4 µg/mL
MIC (Malassezia pachydermatis; isolate ML44): 1 µg/mL
MIC (Malassezia pachydermatis; isolate ML69): 2 µg/mL
MIC, combination (Malassezia pachydermatis; isolate ML18): 0.5 µg/mL
MIC, combination (Malassezia pachydermatis; isolate ML19): 1 µg/mL
MIC, combination (Malassezia pachydermatis; isolate ML20): 0.5 µg/mL
MIC, combination (Malassezia pachydermatis; isolate ML21): 1 µg/mL
MIC, combination (Malassezia pachydermatis; isolate ML36): 1 µg/mL
MIC, combination (Malassezia pachydermatis; isolate ML41): 0.5 µg/mL
MIC, combination (Malassezia pachydermatis; isolate ML42): 1 µg/mL
MIC, combination (Malassezia pachydermatis; isolate ML43): 2 µg/mL
MIC, combination (Malassezia pachydermatis; isolate ML44): 0.5 µg/mL
MIC, combination (Malassezia pachydermatis; isolate ML69): 1 µg/mL
MIC, combination (Candida albicans [1]; EDTA + NCL812 combination): 1 µg/mL
MIC (Candida albicans [1]; read-out: MIC, compound alone): 4 µg/mL
MIC (Candida albicans [2]; ATCC90028, read-out: MIC at 24-48 hours, Candida albicans ATCC 90028): 2 µg/mL (≈ 5.98 µM)
MIC (Candida albicans [2]; read-out: MIC at 24-48 hours, Candida albicans SA3): 2 µg/mL (≈ 5.98 µM)
MIC at 24-48 hours (Cryptococcus neoformans [3]; Cryptococcus neoformans SA2): 2 µg/mL (≈ 5.98 µM)
MIC (Cryptococcus neoformans [3]; read-out: MIC at 24-48 hours, Cryptococcus neoformans SA1): 2 µg/mL (≈ 5.98 µM)
MIC (Cryptococcus neoformans [3]; two isolates of Cryptococcus neoformans, summary range, read-out: MICs): 1 to 16 µg/mL (≈ 2.99 to 47.9 µM)
MIC (Candida albicans [4]; ATCC90028, Candida albicans ATCC 90028, read-out: MIC): 2 µg/mL (≈ 5.98 µM)
MIC (Candida albicans [4]; Candida albicans, C. albicans SA3, read-out: MIC): 2 µg/mL (≈ 5.98 µM)
MIC (Cryptococcus neoformans [5]; Cryptococcus neoformans, Cryptococcus neoformans SA1, read-out: MIC): 2 µg/mL (≈ 5.98 µM)
MIC (Cryptococcus neoformans [5]; Cryptococcus neoformans, Cryptococcus neoformans SA2, read-out: MIC): 2 µg/mL (≈ 5.98 µM)
MIC (Cryptococcus neoformans [5]; Cryptococcus neoformans, human clinical isolate C. neoformans serotype A/D hybrid, read-out: MIC): 16 µg/mL (≈ 47.9 µM)
MIC (Cryptococcus neoformans [5]; Cryptococcus neoformans, human clinical isolate C. neoformans var grubii 16-90050434, read-out: MIC): 32 µg/mL (≈ 95.7 µM)
MIC (Cryptococcus neoformans [5]; Cryptococcus neoformans, human clinical isolate C. neoformans var grubii 17-90028233, read-out: MIC): 32 µg/mL (≈ 95.7 µM)
MIC (Cryptococcus neoformans [5]; Cryptococcus neoformans, human clinical isolate C. neoformans var grubii 17-93996464, read-out: MIC): 16 µg/mL (≈ 47.9 µM)
SMILES: N=C(N/N=C/c1ccc(Cl)cc1)N/N=C/c1ccc(Cl)cc1 [NCL812, robenidine, reference compound]
interaction of NCL812 and EDTA (FICI interpretation) (Malassezia pachydermatis; each of the 11 isolates (10 Malassezia, 1 Candida albicans)): Synergy (FICI ≤ 0.5)
FICI (Malassezia pachydermatis; isolate ML18): 1
FICI (Malassezia pachydermatis; isolate ML19): 1
FICI (Malassezia pachydermatis; isolate ML20): 1
FICI (Malassezia pachydermatis; isolate ML21): 1
FICI (Malassezia pachydermatis; isolate ML36): 1
FICI (Malassezia pachydermatis; isolate ML41): 0.75
FICI (Malassezia pachydermatis; isolate ML42): 1
FICI (Malassezia pachydermatis; isolate ML43): 1
FICI (Malassezia pachydermatis; isolate ML44): 1
FICI (Malassezia pachydermatis; isolate ML69): 1
FICI (Candida albicans [1]; NCL812 with EDTA): 0.75
antifungal activity against the two isolates of Candida albicans (Candida albicans [2]): high antifungal activity
activity against all isolates (Cryptococcus neoformans [5]; [6]): active
activity against one or more isolates of Candida albicans and Cryptococcus neoformans (Cryptococcus neoformans [5]; summary in words): highly active

MIC at 24-48 hours (Candida albicans [2]; Candida albicans ATCC 90028): 2 µg/mL (≈ 5.56 µM)
MIC at 24-48 hours (Candida albicans [2]; Candida albicans SA3): 2 µg/mL (≈ 5.56 µM)
MIC at 24-48 hours (Cryptococcus neoformans [3]; Cryptococcus neoformans SA1): 2 µg/mL (≈ 5.56 µM)
MIC at 24-48 hours (Cryptococcus neoformans [3]; Cryptococcus neoformans SA2): 2 µg/mL (≈ 5.56 µM)
MIC (Candida albicans [4]; C. albicans SA3): 2 µg/mL (≈ 5.56 µM)
MIC (Candida albicans [4]; Candida albicans ATCC 90028): 2 µg/mL (≈ 5.56 µM)
MIC (Cryptococcus neoformans [5]; Cryptococcus neoformans SA1): 2 µg/mL (≈ 5.56 µM)
MIC (Cryptococcus neoformans [5]; Cryptococcus neoformans SA2): 2 µg/mL (≈ 5.56 µM)
MIC (Cryptococcus neoformans [5]; human clinical isolate C. neoformans serotype A/D hybrid): 2 µg/mL (≈ 5.56 µM)
MIC (Cryptococcus neoformans [5]; human clinical isolate C. neoformans var grubii 16-90050434): 2 µg/mL (≈ 5.56 µM)
MIC (Cryptococcus neoformans [5]; human clinical isolate C. neoformans var grubii 17-90028233): 2 µg/mL (≈ 5.56 µM)
MIC (Cryptococcus neoformans [5]; human clinical isolate C. neoformans var grubii 17-93996464): 2 µg/mL (≈ 5.56 µM)
MIC (Cryptococcus neoformans [5]; human clinical isolate C. neoformans var grubii 17-93996964): 2 µg/mL (≈ 5.56 µM)
SMILES: Cc1ccc(/C=N/Nc2cc(N/N=C/c3ccc(C)cc3)nc(N)n2)cc1 [NCL195]
antifungal activity against the two isolates of Candida albicans (Candida albicans [2]): high antifungal activity
activity against all isolates (Cryptococcus neoformans [5]; [6]): active
relative potency among tested compounds (Cryptococcus neoformans [5]; [6]): most potent activity
